What was measured:
TCDD-induced MCF-7 cells = assay: TCDD-induced MCF-7 cell line cytotoxicity assay, MTT; type: cell-based, human; conditions: for IC50: 96 hours, MTT
Text: (§1) CYP1A1 and CYP1B1 enzyme activity is induced by TCDD (tetrachlorodibenzodioxin (Dioxin)) in breast tumour MCF-7 cells (see, e.g., Sutter et al., 1994). CYP1B1 is expressed in a variety of human tumours, and can be inducible by TCDD in numerous cell types including breast, liver, lung, and kidney (see, e.g., Murray et al., 1997). CYP1B1 is known to catalyse estradiol 4-hydroxylation metabolism. In untreated culture, the constitutive rate of estradiol E2 metabolism in MCF-7 cells is minimal. However, treatment with TCDD causes a marked increase in the rate of E2 metabolism (see, e.g., Spink et al., 1994). […] Therefore the cytotoxicity of compounds in non-induced MCF-7 cells correlates to the cytotoxicity of compounds against normal cells, whilst the cytotoxicity of compounds against TCDD-induced MCF-7 cells correlates to the cytotoxicity of compounds against real tumours that express CYP1B1.
(§2) The cytotoxicity of compounds in non-induced MCF-7 cells correlates to the cytotoxicity of compounds against normal cells, whilst the cytotoxicity of compounds against TCDD-induced MCF-7 cells correlates to the cytotoxicity of compounds against real tumours that express CYP1B1.
Cells were maintained in RPMI 1640 with Glutamax 1 (Life Technologies) with 10% (v/v) heat inactivated foetal calf serum (Hybrimax. Sigma), at 37° C., 5% CO2/95% air with 100% humidity and passaged using trypsin/EDTA. 1×10^3 cells were plated out in 100 μl medium per well of 96-well flat-bottomed plates (Fisher). After 4 hours to allow adherance, 100 μl of medium containing TCDD (British Greyhound Chromatography; 10 μM stock in DMSO (dimethylsulfoxide)) or medium with 0.2% (v/v) DMSO as control was added to each well to give a final concentration of 10 nM TCDD, 0.1% (v/v) DMSO, for 24 hours to allow maximal CYP expression. The medium was then carefully aspirated and 100 μl fresh medium added. Within 30 minutes test compound was added in quadruplicate in 100 μl medium (with or without inhibitors) at double the final concentration from 100 mM stock in DMSO to give a final concentration of not more than 0.1% (v/v) DMSO, or DMSO solvent alone at 0.1% (v/v) as control. The cells were then allowed to grow on for 96 hours to give 80–90% confluence in the control wells. 50 μl MTT (Thiazol blue, Sigma) at 2 mg/ml in Dulbecco's phosphate buffered saline-A, was then added to each well for 3 hours. All medium was aspirated, then the formazan product generated by viable cells was solubilized with 150 μl DMSO. Plates were vortexed and the absorbance at 540 nm determined using a plate reader. Results were expressed as the percentage of 100% (control) proliferation and the IC50 calculated using the line of best fit for a sigmoidal dose response curve with variable slope using Graphpad Prizm software. All determinations were carried out in at least triplicate. […]

[1] = system: MDA-468 advanced breast cancer cell line; assay: MDA-468 tumour cell line cytotoxicity assay; type: cell-based, human
Procedure: (§3) Cells were maintained in RPMI 1640 with Glutamax 1 (Life Technologies) with 10% (v/v) heat inactivated foetal calf serum (Hybrimax. Sigma), at 37° C., 5% CO2/95% air with 100% humidity and passaged using trypsin/EDTA. 1×10^3 cells were plated out in 100 μl medium per well of 96-well flat-bottomed plates (Fisher). […] The medium was then carefully aspirated and 100 μl fresh medium added. […] 50 μl MTT (Thiazol blue, Sigma) at 2 mg/ml in Dulbecco's phosphate buffered saline-A, was then added to each well for 3 hours. All medium was aspirated, then the formazan product generated by viable cells was solubilized with 150 μl DMSO. Plates were vortexed and the absorbance at 540 nm determined using a plate reader. […] All determinations were carried out in at least triplicate.
(§4) This cell culture based assay is performed using the two cell lines MDA-468 and MCF-10A. The MDA468 cell line is an advanced breast cancer cell line, whilst the MCF-10A cell line is a normal breast cell line.
(§5) This assay was performed using the two cell lines MDA-468 and MCF-10A according to the procedure described above for the MCF-7 assay, but without the addition of TCDD.
(§6) The tumour selectivity differential factor (TSDF) is calculated by dividing the IC50 obtained from the MCF-10A data by the IC50 obtained from the MDA-468 data.

MCF-7 cells = assay: MCF-7 cell line (non-induced) cytotoxicity assay, MTT; type: cell-based; conditions: Homo sapiens, MCF7; non-induced MCF-7 cells, 96 hours, MTT; read-out: MCF-7 Cells IC50
Text: as §1, §2
Cells were maintained in RPMI 1640 with Glutamax 1 (Life Technologies) with 10% (v/v) heat inactivated foetal calf serum (Hybrimax. Sigma), at 37° C., 5% CO2/95% air with 100% humidity and passaged using trypsin/EDTA. 1×10^3 cells were plated out in 100 μl medium per well of 96-well flat-bottomed plates (Fisher). After 4 hours to allow adherance, 100 μl of medium containing TCDD (British Greyhound Chromatography; 10 μM stock in DMSO (dimethylsulfoxide)) or medium with 0.2% (v/v) DMSO as control was added to each well to give a final concentration of 10 nM TCDD, 0.1% (v/v) DMSO, for 24 hours to allow maximal CYP expression. The medium was then carefully aspirated and 100 μl fresh medium added. Within 30 minutes test compound was added in quadruplicate in 100 μl medium (with or without inhibitors) at double the final concentration from 100 mM stock in DMSO to give a final concentration of not more than 0.1% (v/v) DMSO, or DMSO solvent alone at 0.1% (v/v) as control. The cells were then allowed to grow on for 96 hours to give 80–90% confluence in the control wells. 50 μl MTT (Thiazol blue, Sigma) at 2 mg/ml in Dulbecco's phosphate buffered saline-A, was then added to each well for 3 hours. All medium was aspirated, then the formazan product generated by viable cells was solubilized with 150 μl DMSO. Plates were vortexed and the absorbance at 540 nm determined using a plate reader. Results were expressed as the percentage of 100% (control) proliferation and the IC50 calculated using the line of best fit for a sigmoidal dose response curve with variable slope using Graphpad Prizm software. All determinations were carried out in at least triplicate.

[2] = system: MCF-10A normal breast cell line; assay: MCF-10A normal cell line cytotoxicity assay; type: cell-based; conditions: Homo sapiens, without TCDD
Procedure: as §3, §4, §5, §6

[3] = system: K562 human leukemia cell line; conditions: background, antitumour activity; cited from earlier work

With `CCCOc1ccc(/C=C/C(=O)c2cc(OC)cc(OC)c2)cc1` [DMU-175, (E)-1-(4-propoxyphenyl)-3-(3,5-dimethoxyphenyl)prop-1-en-3-one] the “increase in the cytotoxic activity by the induction of CYP1B1” value (TCDD-induced MCF-7 cells; FIG. 1, un-induced versus TCDD-induced MCF-7 cells) was 28 fold, the IC50 (TCDD-induced MCF-7 cells; Homo sapiens, MCF7, MCF-7 cells induced with 10 nM TCDD for 24 hours) was 0.54 µM and the “Tumour Selectivity Differential Factor” value (TCDD-induced MCF-7 cells; MCF-7 IC50 versus TCDD-induced MCF-7 IC50 (Table 1)) was 30. For the same compound, the IC50 (TCDD-induced MCF-7 cells; MCF-7 cells induced with 10 nM TCDD for 24 hours) was 0.5 µM, the “more toxic to “tumour” cells than to “normal” cells” value (TCDD-induced MCF-7 cells; TCDD-induced MCF-7 versus MCF-7) was 30 fold and the IC50 ([1]; Homo sapiens, without TCDD) was 1.4 µM. The “Tumour Selectivity Differential Factor” value ([1]; IC50 MCF-10A divided by IC50 MDA-468 (Table 2)) was 11, the “more toxic to cancer cells than to normal cells (tumour selectivity)” value ([1]; MDA-468 versus MCF-10A) was 11 fold and the IC50 (MCF-7 cells) was 15 µM. The IC50 [2] was 16 µM.

In the case of `CC(=O)/C=C/c1ccc(O)cc1` [(E)-1-(4′-hydroxyphenyl)but-1-en-3-one], the IC50 [3] is listed as 60 µM.

Source: patent publication US7112698B2, “4-(c2-6alkoxy)-substituted chalcones as therapeutic agents” (Spear Therapeutics Limited, priority 2001, dated 2006)
